According to patent US10537558B2 (Bantam Pharmaceutical, LLC, priority 2015, dated 2020):

Test system: BJAB cells
Assay: BJAB cell proliferation (Cell Titer Glo)
Type: cell-based
Conditions: Homo sapiens, read-out: EC50
How it was run: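 BJAB cells exposed to serially diluted compounds (0.1% DMSO final) for about 72 h at 37 °C. Proliferation read by Cell Titer Glo luminescence as percent of untreated controls; EC50 from non-linear regression of dose-response data.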

Structure (SMILES)	EC50 [µM]
COc1cc(C#N)cc(-c2c(C)nn(-c3nc(-c4ccc(Cl)c(Cl)c4)c(SC(C)C)s3)c2C(=O)O)c1 [Compound 83, 4-(3-cyano-5-methoxyphenyl)-1-(4-(3,4-dichlorophenyl)-5-(isopropylthio)thiazol-2-yl)-3-methyl-1H-pyrazole-5-carboxylic acid]	5 to 10
Cc1nn(-c2nc(-c3ccc(Cl)c(Cl)c3)c(SC(C)C)s2)c(C(=O)O)c1-c1cc(C#N)cc(C(F)(F)F)c1 [Compound 84, 4-(3-cyano-5-(trifluoromethyl)phenyl)-1-(4-(3,4-dichlorophenyl)-5-(isopropylthio)thiazol-2-yl)-3-methyl-1H-pyrazole-5-carboxylic Acid]	1 to 5
COCc1cccc(-c2c(C)nn(-c3nc(-c4ccc(Cl)c(Cl)c4)c(SC(C)C)s3)c2C(=O)O)c1 [Compound 85, 1-(4-(3,4-dichlorophenyl)-5-(isopropylthio)thiazol-2-yl)-4-(3-(methoxymethyl)phenyl)-3-methyl-1H-pyrazole-5-carboxylic acid]	5 to 10
Cc1nn(-c2nc(-c3ccc(Cl)c(Cl)c3)c(SC(C)C)s2)c(C(=O)O)c1-c1c(Cc2ccccc2)noc1C [Compound 86, 4-(3-benzyl-5-methylisoxazol-4-yl)-1-(4-(3,4-dichlorophenyl)-5-(isopropylthio)thiazol-2-yl)-3-methyl-1H-pyrazole-5-carboxylic Acid]	1 to 5
Cc1nn(-c2nc(-c3ccc(Cl)c(Cl)c3)c(SC(C)C)s2)c(C(=O)O)c1-c1cccc(CN(C)C)c1 [Compound 87, 1-(4-(3,4-dichlorophenyl)-5-(isopropylthio)thiazol-2-yl)-4-(3-((dimethylamino)methyl)phenyl)-3-methyl-1H-pyrazole-5-carboxylic acid]	> 25
Cc1nn(-c2nc(-c3ccc(Cl)c(Cl)c3)c(SC(C)C)s2)c(CO)c1-c1ccccc1 [Compound 88, (1-(4-(3,4-dichlorophenyl)-5-(isopropylthio)thiazol-2-yl)-3-methyl-4-phenyl-1H-pyrazol-5-yl)MeOH]	> 25
Cc1nn(-c2nc(-c3ccc(Cl)c(Cl)c3)c(SC(C)C)s2)c(C(=O)O)c1-c1ccc2c(c1)OCO2 [Compound 89, 4-(benzo[d][1,3]dioxol-5-yl)-1-(4-(3,4-dichlorophenyl)-5-(isopropylthio)thiazol-2-yl)-3-methyl-1H-pyrazole-5-carboxylic Acid]	5 to 10
COc1ccnc(-c2c(C)nn(-c3nc(-c4ccc(Cl)c(Cl)c4)c(SC(C)C)s3)c2C(=O)O)n1 [Compound 90, 1-(4-(3,4-dichlorophenyl)-5-(isopropylthio)thiazol-2-yl)-4-(4-methoxypyrimidin-2-yl)-3-methyl-1H-pyrazole-5-carboxylic acid]	> 25
Cc1nn(-c2nc(-c3ccc(Cl)c(Cl)c3)c(SC(C)C)s2)c(C(=O)O)c1-c1cnsc1 [Compound 91, 1-(4-(3,4-dichlorophenyl)-5-(isopropylthio)thiazol-2-yl)-4-(isothiazol-4-yl)-3-methyl-1H-pyrazole-5-carboxylic acid]	5 to 10
Cc1cc(-c2c(C)nn(-c3nc(-c4ccc(Cl)c(Cl)c4)c(SC(C)C)s3)c2C(=O)O)sn1 [Compound 92, 1-(4-(3,4-dichlorophenyl)-5-(isopropylthio)thiazol-2-yl)-3-methyl-4-(3-methylisothiazol-5-yl)-1H-pyrazole-5-carboxylic Acid]	1 to 5
Cc1nn(-c2nc(-c3ccc(Cl)c(Cl)c3)c(SC(C)C)s2)c(C(=O)O)c1-c1ccn(C)c(=O)c1 [Compound 93, 1-(4-(3,4-dichlorophenyl)-5-(isopropylthio)thiazol-2-yl)-3-methyl-4-(1-methyl-2-oxo-1,2-dihydropyridin-4-yl)-1H-pyrazole-5-carboxylic acid]	> 25
Cc1nn(-c2nc(-c3ccc(Cl)c(Cl)c3)c(SC(C)C)s2)c(C(=O)O)c1-c1cc(C)c(=O)n(C)c1 [Compound 94, 1-(4-(3,4-dichlorophenyl)-5-(isopropylthio)thiazol-2-yl)-4-(1,5-dimethyl-6-oxo-1,6-dihydropyridin-3-yl)-3-methyl-1H-pyrazole-5-carboxylic Acid]	> 25
Cc1cc(F)cc(-c2c(C)nn(-c3nc(-c4ccc(Cl)c(Cl)c4)c(SC(C)C)s3)c2C(=O)O)c1 [Compound 95, 1-(4-(3,4-dichlorophenyl)-5-(isopropylthio)thiazol-2-yl)-4-(3-fluoro-5-methylphenyl)-3-methyl-1H-pyrazole-5-carboxylic Acid]	1 to 5
Cc1cc(O)cc(-c2c(C)nn(-c3nc(-c4ccc(Cl)c(Cl)c4)c(SC(C)C)s3)c2C(=O)O)c1 [Compound 96, 1-(4-(3,4-dichlorophenyl)-5-(isopropylthio)thiazol-2-yl)-4-(3-hydroxy-5-methylphenyl)-3-methyl-1H-pyrazole-5-carboxylic acid]	> 25
Cc1cc(OC(C)C)cc(-c2c(C)nn(-c3nc(-c4ccc(Cl)c(Cl)c4)c(SC(C)C)s3)c2C(=O)O)c1 [Compound 97, 1-(4-(3,4-dichlorophenyl)-5-(isopropylthio)thiazol-2-yl)-4-(3-isopropoxy-5-methylphenyl)-3-methyl-1H-pyrazole-5-carboxylic Acid]	1 to 5
Cc1cc(OC2COC2)cc(-c2c(C)nn(-c3nc(-c4ccc(Cl)c(Cl)c4)c(SC(C)C)s3)c2C(=O)O)c1 [Compound 98, 1-(4-(3,4-dichlorophenyl)-5-(isopropylthio)thiazol-2-yl)-3-methyl-4-(3-methyl-5-(oxetan-3-yloxy)phenyl)-1H-pyrazole-5-carboxylic Acid]	1 to 5
Cc1cc(-c2c(C)nn(-c3nc(-c4ccc(Cl)c(Cl)c4)c(SC(C)C)s3)c2C(=O)O)cc(N(C)C)c1 [Compound 99, 1-(4-(3,4-dichlorophenyl)-5-(isopropylthio)thiazol-2-yl)-4-(3-(dimethylamino)-5-methylphenyl)-3-methyl-1H-pyrazole-5-carboxylic acid]	5 to 10
Cc1cc(-c2c(C)nn(-c3nc(-c4ccc(Cl)c(Cl)c4)c(SC(C)C)s3)c2C(=O)O)cc(-n2ccnc2)c1 [Compound 100, 4-(3-(1H-imidazol-1-yl)-5-methylphenyl)-1-(4-(3,4-dichlorophenyl)-5-(isopropylthio)thiazol-2-yl)-3-methyl-1H-pyrazole-5-carboxylic Acid]	1 to 5
Cc1cc(-c2c(C)nn(-c3nc(-c4ccc(Cl)c(Cl)c4)c(SC(C)C)s3)c2C(=O)O)cc(N2CCC2)n1 [Compound 101, 4-(2-(azetidin-1-yl)-6-methylpyridin-4-yl)-1-(4-(3,4-dichlorophenyl)-5-(isopropylthio)thiazol-2-yl)-3-methyl-1H-pyrazole-5-carboxylic acid]	1 to 5
Cc1cc(-c2c(C)nn(-c3nc(-c4ccc(Cl)c(Cl)c4)c(SC(C)C)s3)c2C(=O)O)cc(N2CCOCC2)n1 [Compound 102, 1-(4-(3,4-dichlorophenyl)-5-(isopropylthio)thiazol-2-yl)-3-methyl-4-(2-methyl-6-morpholinopyridin-4-yl)-1H-pyrazole-5-carboxylic Acid]	5 to 10
COc1cccc(-c2nc(-n3nc(C)c(Cc4ccccc4[N+](=O)[O-])c3C(=O)O)sc2SC(C)C)c1 [Compound 103, 1-(5-(isopropylthio)-4-(3-methoxyphenyl)thiazol-2-yl)-3-methyl-4-(2-nitrobenzyl)-1H-pyrazole-5-carboxylic Acid]	> 80
Cc1nn(-c2nc(-c3ccc(Cl)c(Cl)c3)c(SCCC(C)C)s2)c(C(=O)O)c1Cc1ccccc1[N+](=O)[O-] [Compound 104, 1-(4-(3,4-dichlorophenyl)-5-(isopentylthio)thiazol-2-yl)-3-methyl-4-(2-nitrobenzyl)-1H-pyrazole-5-carboxylic acid]	25 to 50
COc1cccc(-c2nc(-n3nc(C)c(Cc4ccccc4NS(C)(=O)=O)c3C(=O)O)sc2SC(C)C)c1 [Compound 105, 1-(5-(isopropylthio)-4-(3-methoxyphenyl)thiazol-2-yl)-3-methyl-4-(2-(methylsulfonamido)benzyl)-1H-pyrazole-5-carboxylic acid]	> 80
CCC(C)Sc1sc(-n2nc(C)c(Cc3ccccc3[N+](=O)[O-])c2C(=O)O)nc1-c1ccc(Cl)c(Cl)c1 (stereo not drawn) [Compound 106, 1-(5-(sec-butylthio)-4-(3,4-dichlorophenyl)thiazol-2-yl)-3-methyl-4-(2-nitrobenzyl)-1H-pyrazole-5-carboxylic acid]	10 to 25
Cc1nn(-c2nc(-c3ccc(Cl)c(Cl)c3)c(SC(C)C)s2)c(C(=O)O)c1-c1ccc2cc[nH]c2c1 [Compound 107, 1-(4-(3,4-dichlorophenyl)-5-(isopropylthio)thiazol-2-yl)-4-(1H-indol-6-yl)-3-methyl-1H-pyrazole-5-carboxylic acid]	25 to 50
Cc1nn(-c2nc(-c3ccc(Cl)c(Cl)c3)c(SC(C)C)s2)c(C(=O)O)c1-c1cccc([N+](=O)[O-])c1 [Compound 108, 1-(4-(3,4-dichlorophenyl)-5-(isopropylthio)thiazol-2-yl)-3-methyl-4-(3-nitrophenyl)-1H-pyrazole-5-carboxylic Acid]	5 to 10
Cc1nn(-c2nc(-c3ccc(Cl)c(Cl)c3)c(SC(C)C)s2)c(C(=O)O)c1-c1cn[nH]c1 [Compound 109, 2-(4-(3,4-dichlorophenyl)-5-(isopropylthio)thiazol-2-yl)-5-methyl-4,4′-bi(2H-pyrazole)-3-carboxylic acid]	25 to 50
Cc1nn(-c2nc(-c3ccc(Cl)c(Cl)c3)c(SC(C)C)s2)c(C(=O)O)c1-c1c[nH]c2ccccc12 [Compound 110, 1-(4-(3,4-dichlorophenyl)-5-(isopropylthio)thiazol-2-yl)-4-(1H-indol-3-yl)-3-methyl-1H-pyrazole-5-carboxylic acid]	10 to 25
Cc1nn(-c2nc(-c3ccc(Cl)c(Cl)c3)c(SC(C)C)s2)c(C(=O)O)c1-c1ccccc1Cl [Compound 111, 4-(2-chlorophenyl)-1-(4-(3,4-dichlorophenyl)-5-(isopropylthio)thiazol-2-yl)-3-methyl-1H-pyrazole-5-carboxylic acid]	10 to 25
Cc1nn(-c2nc(-c3ccc(Cl)c(Cl)c3)c(SC(C)C)s2)c(C(=O)O)c1-c1cccc(Cl)c1 [Compound 112, 4-(3-chlorophenyl)-1-(4-(3,4-dichlorophenyl)-5-(isopropylthio)thiazol-2-yl)-3-methyl-1H-pyrazole-5-carboxylic Acid]	1 to 5
